Earlier results in patent US5792763A, “Serotonin 5-HT1F agonists” (Eli Lilly and Company, priority 1997, dated 1998).

How the values were obtained:
[1] = background section
neurogenic inflammation = conditions: background section
[2] = background section; remark: listed apart in the source
[3] = system: cephalic vascular smooth muscle; conditions: background section

crossing of the blood-brain barrier [1]: does not cross the blood-brain barrier
Structure (SMILES): CNS(=O)(=O)Cc1ccc2[nH]cc(CCN(C)C)c2c1 [sumatriptan]
blockade of neurogenic inflammation (neurogenic inflammation): blocked
effectiveness in the treatment of migraine [2]: effective in the treatment of migraine
contraction of cephalic vascular smooth muscle [3]: contract cephalic vascular smooth muscle
